Reference: PMC6696278 (International Journal of Molecular Sciences, 2019)

Experiments:
Type in all cases: binding
[1] = biological target: T1, human galectin-1 (Homo sapiens, UniProt P09382); assay: competitive fluorescence polarization assay, galectin-1; details: for Kd: average and SEM of 4–8 single-triple point measurements, PBS
T1 construct: made in house
Text: (§1) Human galectin-1 [25], galectin-2 [26], galectin-3 [27], galectin-4N [19], galectin-4C [19], galectin-8N [28], galectin-8C [28], galectin-9N [29], and galectin-9C [30], were expressed and purified as described earlier. Human galectin-7 was expressed using a pET3c plasmid in E. coli BL21-star. The plasmid containing expression optimized DNA encoding the full human galectin-7 sequence (NCBI Reference Sequence: NP_002298.1) was obtained from GenScript (Piscataway, NJ, USA). […] Lactose was removed by chromatography on a PD-10 column (Amersham Biosciences) with repeated ultrafiltration with Centriprep (Amicon).
(§2) Fluorescence polarization experiments were carried out either with a POLARStar plate reader and FLUOstar Galaxy software or with a PheraStarFS plate reader and PHERAstar Mars version 2.10 R3 software (BMG, Offenburg, Germany). The dissociation constant (Kd) values were determined in PBS as described earlier. Specific conditions for galectin-1, 2, 3, 4N, 4C, 8N, 8C, 9N, and 9C were kept as reported. Experiments were performed at room temperature with human galectin-7 at 5 µM and the fluorescent probe β-D-galactopyranosyl-(1–4)-2-acetamido-2-deoxy-β-d-glucopyranosyl-(1–3)-β-d-galactopyranosyl-(1–4)-(N1-fluorescein-5-yl-carbonylaminomethylcarbonyl)-β-D-glucopyranosylamine at 0.02 µM. All the compounds in Table 1 except 32 were dissolved in a neat DMSO at 100 mM and diluted in PBS to three to six different concentrations to be tested in duplicate.

[2] = biological target: T2, human galectin-2 (Homo sapiens, UniProt P05162); assay: competitive fluorescence polarization assay, galectin-2; details: average and SEM, PBS
T2 construct: made in house
T2 sequence (P05162 1-132): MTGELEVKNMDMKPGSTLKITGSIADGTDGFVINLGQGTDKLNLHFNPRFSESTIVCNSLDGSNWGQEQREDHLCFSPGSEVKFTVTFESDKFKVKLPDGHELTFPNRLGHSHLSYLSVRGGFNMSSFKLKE
Text: (§3) Human galectin-1 [25], galectin-2 [26], galectin-3 [27], galectin-4N [19], galectin-4C [19], galectin-8N [28], galectin-8C [28], galectin-9N [29], and galectin-9C [30], were expressed and purified as described earlier. Human galectin-7 was expressed using a pET3c plasmid in E. coli BL21-star. The plasmid containing expression optimized DNA encoding the full human galectin-7 sequence (NCBI Reference Sequence: NP_002298.1) was obtained from GenScript (Piscataway, NJ, USA). Bacterial culture and induction, and galectin purification was essential as described for galectin-3 expressed with the same vector [27]; a typical yield was 1.5–2 mg/L culture. Lactose was removed by chromatography on a PD-10 column (Amersham Biosciences) with repeated ultrafiltration with Centriprep (Amicon).
as §2

[3] = biological target: T3, human galectin-3 (Homo sapiens, UniProt P17931); assay: competitive fluorescence polarization assay, galectin-3; details: average and SEM, PBS
T3 construct: made in house; host or cells: vector pET3c (the same vector as galectin-7)
T3 sequence (P17931 whole entry): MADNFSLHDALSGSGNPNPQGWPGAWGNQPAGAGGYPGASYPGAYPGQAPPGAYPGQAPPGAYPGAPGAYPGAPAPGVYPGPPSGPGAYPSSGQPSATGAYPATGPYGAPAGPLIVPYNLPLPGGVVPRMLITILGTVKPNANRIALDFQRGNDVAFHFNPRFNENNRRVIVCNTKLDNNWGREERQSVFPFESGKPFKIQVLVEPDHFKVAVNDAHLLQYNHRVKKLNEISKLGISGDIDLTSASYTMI
Text: as §1, §2

[4] = biological target: T4, human galectin-4N (N-terminal domain) (Homo sapiens, UniProt P56470); assay: competitive fluorescence polarization assay, galectin-4N; details: for Kd: N-terminal domain, average and SEM, PBS
T4 construct: 4N (N-terminal domain) 4C (C-terminal domain); made in house
T4 sequence (P56470 19-150 limits assumed): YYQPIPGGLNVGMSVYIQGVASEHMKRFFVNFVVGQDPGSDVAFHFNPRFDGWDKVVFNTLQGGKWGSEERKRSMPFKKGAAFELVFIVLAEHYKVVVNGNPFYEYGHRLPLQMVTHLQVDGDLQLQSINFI
Text: as §3, §2

[5] = biological target: T5, human galectin-4C (C-terminal domain) (Homo sapiens, UniProt P56470); assay: competitive fluorescence polarization assay, galectin-4C; details: PBS
T5 construct: 4N (N-terminal domain) 4C (C-terminal domain); made in house
T5 sequence (P56470 194-323 limits assumed): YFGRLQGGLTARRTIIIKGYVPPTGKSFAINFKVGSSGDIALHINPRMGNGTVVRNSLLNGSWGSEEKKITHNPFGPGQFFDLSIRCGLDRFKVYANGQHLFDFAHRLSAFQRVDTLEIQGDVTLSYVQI
Text: as §1, §2

[6] = biological target: T6, human galectin-7 (Homo sapiens, UniProt P47929); assay: competitive fluorescence polarization assay, galectin-7; details: average and SEM, PBS, room temperature, galectin-7 at 5 µM, probe 0.02 µM
T6 construct: made in house; host or cells: E. coli BL21-star, pET3c plasmid (DNA from GenScript)
T6 sequence (P47929 whole entry): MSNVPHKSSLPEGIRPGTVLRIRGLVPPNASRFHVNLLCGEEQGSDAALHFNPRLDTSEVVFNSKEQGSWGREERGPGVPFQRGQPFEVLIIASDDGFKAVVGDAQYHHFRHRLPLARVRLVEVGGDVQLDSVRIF
Text: as §3, §2

[7] = biological target: T7, human galectin-8N (N-terminal domain) (Homo sapiens, UniProt O00214); assay: competitive fluorescence polarization assay, galectin-8N; details: PBS
T7 construct: 4N (N-terminal domain) 4C (C-terminal domain), 7, 8N, 8C, 9N, and 9C; made in house
T7 sequence (O00214 19-152 limits assumed): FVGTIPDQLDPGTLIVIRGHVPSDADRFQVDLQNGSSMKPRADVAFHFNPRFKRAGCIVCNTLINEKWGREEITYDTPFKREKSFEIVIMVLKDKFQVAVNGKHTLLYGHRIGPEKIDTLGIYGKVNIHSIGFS
Text: as §1, §2

[8] = biological target: T8, human galectin-8C (C-terminal domain) (Homo sapiens, UniProt O00214); assay: competitive fluorescence polarization assay, galectin-8C; details: PBS
T8 construct: 4N (N-terminal domain) 4C (C-terminal domain), 7, 8N, 8C, 9N, and 9C; made in house
T8 sequence (O00214 187-317 limits assumed): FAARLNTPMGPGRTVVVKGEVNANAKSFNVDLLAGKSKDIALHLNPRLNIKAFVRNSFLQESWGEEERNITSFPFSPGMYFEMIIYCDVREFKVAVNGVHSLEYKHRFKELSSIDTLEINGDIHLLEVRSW
Text: as §1, §2

[9] = biological target: T9, human galectin-9N (N-terminal domain) (Homo sapiens, UniProt O00182); assay: competitive fluorescence polarization assay, galectin-9N; details: PBS
T9 construct: 4N (N-terminal domain) 4C (C-terminal domain), 7, 8N, 8C, 9N, and 9C; made in house
T9 sequence (O00182 17-148 limits assumed): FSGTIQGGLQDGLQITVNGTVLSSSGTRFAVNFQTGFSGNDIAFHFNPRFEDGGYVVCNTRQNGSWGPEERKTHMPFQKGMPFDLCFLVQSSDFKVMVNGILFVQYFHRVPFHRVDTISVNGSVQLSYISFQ
Text: as §3, §2

[10] = biological target: T10, human galectin-9C (C-terminal domain) (Homo sapiens, UniProt O00182); assay: competitive fluorescence polarization assay, galectin-9C; details: PBS
T10 construct: 4N (N-terminal domain) 4C (C-terminal domain), 7, 8N, 8C, 9N, and 9C; made in house
T10 sequence (O00182 227-355 limits assumed): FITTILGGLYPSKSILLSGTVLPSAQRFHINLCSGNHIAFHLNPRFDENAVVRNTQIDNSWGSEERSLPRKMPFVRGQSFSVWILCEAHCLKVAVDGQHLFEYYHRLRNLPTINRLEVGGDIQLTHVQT
Text: as §1, §2

T1 sequence (P09382 whole entry): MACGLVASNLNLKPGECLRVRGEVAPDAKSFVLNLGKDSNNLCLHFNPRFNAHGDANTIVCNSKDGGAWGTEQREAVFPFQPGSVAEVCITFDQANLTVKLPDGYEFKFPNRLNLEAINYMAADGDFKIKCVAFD

SMILES | Kd ([1]; Table 1) [mM] | Kd ([2]; Table 1) [mM] | Kd ([3]; Table 1) [mM] | Kd ([4]; Table 1) [mM] | Kd ([5]; Table 1, average and SEM) [mM] | Kd ([6]; Table 1) [mM] | Kd ([7]; Table 1, average and SEM) [mM] | Kd ([8]; Table 1, average and SEM) [mM] | Kd ([9]; Table 1, average and SEM) [mM] | Kd ([10]; Table 1, average and SEM) [mM] | Kd ([1]; Table 2) [mM] | Kd ([2]; Table 2) [mM] | Kd ([3]; Table 2) [mM] | Kd ([4]; Table 2) [mM] | Kd ([5]; Table 2, average and SEM) [mM] | Kd ([6]; Table 2) [mM] | Kd ([7]; Table 2, average and SEM) [mM] | Kd ([8]; Table 2, average and SEM) [mM] | Kd ([9]; Table 2, average and SEM) [mM] | Kd ([10]; Table 2, average and SEM) [mM] | other results
CO[C@@H]1O[C@H](CO)[C@H](O)[C@H](CO)[C@H]1O [Compound 1b, Methyl 3-Deoxy-3-C-Hydroxymethyl-β-D-Galactopyranoside] | > 4 | > 4 | > 4 | > 4 | > 4 | > 4 | > 4 | > 4 | > 4 | > 4 |  |  |  |  |  |  |  |  |  |  | binding to galectin-4N (in words) [4]: weak binding
CO[C@@H]1O[C@H](CO)[C@H](O)[C@H](Cn2cc(-c3cccc(F)c3)nn2)[C@H]1O [Compound 4, Methyl 3-Deoxy-3-C-[4-(3-Fluorophenyl)-1H-1,2,3-Triazol-1-Ylmethyl]-β-D-Galactopyranoside] | > 4 | > 4 | > 4 | > 4 | > 4 | > 4 | > 4 | > 4 | > 4 | > 4 |  |  |  |  |  |  |  |  |  |  | 
CO[C@@H]1O[C@H](CO)[C@H](O)[C@H](CNC(=O)c2ccc(-c3ccccc3)cc2)[C@H]1O [Compound 7l, Methyl 3-Deoxy-3-C-(4-Phenylbenzamidomethyl)-β-D-Galactopyranoside] |  |  |  |  |  |  |  |  |  |  | > 4 | > 4 | > 4 | > 4 | > 4 | > 4 | > 4 | > 4 | > 4 | > 4 | binding to galectin-1 (in words) ([1]; under the assay conditions): did not bind
CO[C@@H]1O[C@H](CO)[C@H](O)[C@H](CNC(=O)c2ccccc2F)[C@H]1O [Compound 7c, Methyl 3-Deoxy-3-C-(2-Fluorobenzamidomethyl)-β-D-Galactopyranoside] |  |  |  |  |  |  |  |  |  |  | 1.9 ± 0.04 | > 4 | > 4 | 2.2 ± 0.16 | > 4 | > 4 | > 4 | > 4 | > 4 | > 4 | 
COc1cccc(C(=O)NC[C@H]2[C@@H](O)[C@@H](CO)O[C@@H](OC)[C@@H]2O)c1 [Compound 7h, Methyl 3-Deoxy-3-C-(3-Methoxybenzamidomethyl)-β-D-Galactopyranoside] |  |  |  |  |  |  |  |  |  |  | 3.2 ± 0.5 | > 4 | > 4 | > 4 | > 4 | > 4 | > 4 | > 4 | > 4 | > 4 | 
CO[C@@H]1O[C@H](CO)[C@H](O)[C@H](CNC(=O)c2cccc(F)c2)[C@H]1O [Compound 7d, Methyl 3-Deoxy-3-C-(3-Fluorobenzamidomethyl)-β-D-Galactopyranoside] |  |  |  |  |  |  |  |  |  |  | 1.9 ± 0.4 | > 4 | > 4 | > 4 | > 4 | > 4 | > 4 | > 4 | > 4 | > 4 | 
COc1cc(OC)cc(C(=O)NC[C@H]2[C@@H](O)[C@@H](CO)O[C@@H](OC)[C@@H]2O)c1 [Compound 7j, Methyl 3-Deoxy-3-C-(3,5-Dimethoxybenzamidomethyl)-β-D-Galactopyranoside] |  |  |  |  |  |  |  |  |  |  | 1.8 ± 0.04 | > 4 | > 4 | 2 ± 0.4 | > 4 | > 4 | > 4 | 2.6 ± 0.6 | > 4 | > 4 | 
CO[C@@H]1O[C@H](CO)[C@H](O)[C@H](CNC(=O)c2cccc(C(F)(F)F)c2)[C@H]1O [Compound 7k, Methyl 3-Deoxy-3-C-(3-Trifluoromethylbenzamidomethyl)-β-D-Galactopyranoside] |  |  |  |  |  |  |  |  |  |  | 1.8 ± 0.07 | > 4 | > 4 | 1.9 ± 0.1 | > 4 | > 4 | > 4 | > 4 | > 4 | > 4 | 
CO[C@@H]1O[C@H](CO)[C@H](O)[C@H](COc2cccc(C(F)(F)F)c2)[C@H]1O [Compound 2, Methyl 3-Deoxy-3-C-(3-Trifluoromethylphenoxymethyl)-β-D-Galactopyranoside] | > 4 | > 4 | > 4 | > 4 | > 4 | > 4 | > 4 | > 4 | > 4 | > 4 |  |  |  |  |  |  |  |  |  |  | 
CO[C@@H]1O[C@H](CO)[C@H](O)[C@H](CNC(=O)c2c(F)c(F)c(F)c(F)c2F)[C@H]1O [Compound 7g, Methyl 3-Deoxy-3-C-(2,3,4,5,6-Pentafluorobenzamidomethyl)-β-D-Galactopyranoside] |  |  |  |  |  |  |  |  |  |  | 0.7 ± 0.005 | > 4 | > 4 | > 4 | > 4 | > 4 | > 4 | > 4 | > 4 | > 4 | fold better affinity for galectin-1 than reference methyl β-D-galactopyranoside 32 ([1]; ratio of Kd values): 14 fold
